From article PMC8954792 (Viruses, 2022)

Legend:
[1] = tested on: authentic SARS-CoV-2 WT (nCoV-SH01); test: microbe, parasite or virus in culture; format: cell-based; conditions: Severe acute respiratory syndrome coronavirus 2, Vero C1008
cell-free SARS-CoV-2 PsV = test: Inactivation of cell-free SARS-CoV-2 PsV; format: cell-based; conditions: Severe acute respiratory syndrome coronavirus 2
[2] = tested on: pseudotyped SARS-CoV-2 Omicron (B.1.1.529); test: microbe, parasite or virus in culture; format: cell-based; conditions: Severe acute respiratory syndrome coronavirus 2, Caco-2
[3] = tested on: pseudotyped SARS-CoV-2 Alpha (B.1.1.7); test: microbe, parasite or virus in culture; format: cell-based; conditions: Severe acute respiratory syndrome coronavirus 2, Caco-2
[4] = tested on: pseudotyped SARS-CoV-2 Gamma (P.1); test: microbe, parasite or virus in culture; format: cell-based; conditions: Severe acute respiratory syndrome coronavirus 2, Caco-2
MERS-CoV PsV [5] = tested on: MERS-CoV PsV
SARS-CoV PsV [6] = test: microbe, parasite or virus in culture; conditions: Severe acute respiratory syndrome coronavirus
H7N9 PsV = test: microbe, parasite or virus in culture; format: cell-based, influenza virus; conditions: Influenza A virus, H7N9, MDCK, read-out: IC50 H7N9
SARS-CoV-2 PsV [7] = test: microbe, parasite or virus in culture; format: cell-based; conditions: Severe acute respiratory syndrome coronavirus 2
SARS-CoV PsV [8] = tested on: SARS-CoV PsV
cell-free MERS-CoV PsV [9] = test: microbe, parasite or virus in culture; conditions: Middle East respiratory syndrome-related coronavirus, Huh-7
MERS-CoV PsV [10] = test: microbe, parasite or virus in culture; conditions: Middle East respiratory syndrome-related coronavirus, Huh-7
H5N1 PsV = test: microbe, parasite or virus in culture; format: cell-based, influenza virus; conditions: Influenza A virus, H5N1, MDCK, read-out: IC50 H5N1
in vitro = conditions: dog
cell-free SARS-CoV PsV [11] = test: microbe, parasite or virus in culture; conditions: Severe acute respiratory syndrome coronavirus
cell-free SARS-CoV PsV [12] = tested on: cell-free SARS-CoV PsV
[13] = Cytotoxicity (CCK-8) on hACE2-293T cells; conditions: human
[14] = Cytotoxicity (CCK-8) on Huh-7 cells; conditions: human
cell-free MERS-CoV PsV [15] = tested on: cell-free MERS-CoV PsV
[16] = tested on: pseudotyped SARS-CoV-2 Beta (B.1.351); test: microbe, parasite or virus in culture; format: cell-based; conditions: Severe acute respiratory syndrome coronavirus 2, Caco-2
SARS-CoV-2 PsV [17] = format: cell-based
HPV PsV = format: cell-based, human papilloma virus
NiV = test: microbe, parasite or virus in culture; format: cell-based, Nipah virus; conditions: Henipavirus nipahense, U-87 MG
Vero E6 cells = format: cell-based
EBOV (Zaire) = test: microbe, parasite or virus in culture; format: cell-based, Ebola virus; conditions: Zaire ebolavirus, Huh-7
authentic EV71 = test: CPE reduction assay, authentic EV71; format: cell-based, human enterovirus 71 virus; conditions: RD cells
EBOV (Sudan) = test: microbe, parasite or virus in culture; format: cell-based, Ebola virus; conditions: Zaire ebolavirus, Huh-7
VSV PsV = test: microbe, parasite or virus in culture; format: cell-based, vesicular stomatitis virus; conditions: Vesicular stomatitis virus, Huh-7
[18] = tested on: authentic ZIKV PRVABC59 (2015/Puerto Rico); test: microbe, parasite or virus in culture; format: cell-based; conditions: Zika virus, Vero C1008
HIV-1 6-HB = HIV-1 6-HB (Human immunodeficiency virus type 1, UniProt P04578); test: Inhibition of HIV-1 6-HB formation (ELISA); format: biochemical; conditions: HIV-1 6-HB formation measured by ELISA
authentic HCoV-OC43 = test: CPE reduction assay, authentic HCoV-OC43; format: cell-based; conditions: Betacoronavirus 1; HCoV-OC43 infection, RD cells, CCK-8
LASV = test: organism not typed; format: cell-based, Lassa fever virus; conditions: Huh-7

Sequence of HIV-1 6-HB (P04578 536-581, added parts left off): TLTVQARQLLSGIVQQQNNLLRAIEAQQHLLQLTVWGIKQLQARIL
Sequence of HIV-1 6-HB (P04578 536-581, added parts left off): as above

| Compound | IC50 [1] | EC50 (cell-free SARS-CoV-2 PsV) | IC50 [2] | IC50 [3] | IC50 [4] | SI CC50/IC50 (MERS-CoV PsV [5]) | IC50 (SARS-CoV PsV [6]) | IC50 (H7N9 PsV) | IC50 (SARS-CoV-2 PsV [7]) | SI CC50/IC50 (SARS-CoV PsV [8]) | EC50 (cell-free MERS-CoV PsV [9]) | IC50 (MERS-CoV PsV [10]) | IC50 (H5N1 PsV) | CC50 (in vitro) | EC50 (cell-free SARS-CoV PsV [11]) | SI CC50/EC50 (cell-free SARS-CoV PsV [12]) | CC50 at 48 h [13] | CC50 at 48 h [14] | SI CC50/EC50 (cell-free MERS-CoV PsV [15]) | IC50 [16] | also measured |
| --- | --- | --- | --- | --- | --- | --- | --- | --- | --- | --- | --- | --- | --- | --- | --- | --- | --- | --- | --- | --- | --- |
| C#CCOc1ccc(CCN2C(=O)/C(=C/c3ccc(-c4ccc(Cl)c(C(=O)O)c4)o3)SC2=S)cc1 [FD007] | 170 nM | 960 nM | 3090 nM | 290 nM | 530 nM | >250 | 110 ± 10 nM | 2130 ± 200 nM | 320 nM | 301.00 | 890 ± 90 nM | 200 ± 30 nM | 470 ± 110 nM | > 50000 nM | 1540 ± 140 nM | 21.50 | 33100 ± 1020 nM | > 50000 nM | >56.18 | 810 nM | – |
| C#CCOCCOc1ccc(CCN2C(=O)/C(=C/c3ccc(-c4ccc(Cl)c(C(=O)O)c4)o3)SC2=S)cc1 [FD008] | 50 nM | 410 nM | 740 nM | 340 nM | 690 nM | 125.48 | 50 ± 10 nM | 2510 ± 330 nM | 460 nM | 468.80 | 690 ± 130 nM | 310 ± 20 nM | 510 ± 140 nM | > 50000 nM | 190 ± 20 nM | 123.37 | 23400 ± 780 nM | 38900 ± 1220 nM | 56.38 | 420 nM | – |
| CCOc1ccc(CCN2C(=O)/C(=C/c3ccc(-c4ccc(Cl)c(C(=O)O)c4)o3)SC2=S)cc1 [FD009] | 30 nM | 160 nM | 580 nM | 550 nM | 470 nM | 98.36 | 30 ± 10 nM | 1410 ± 270 nM | 50 nM | – | 290 ± 20 nM | 280 ± 20 nM | 150 ± 40 nM | > 50000 nM | 120 ± 10 nM | 144.75 | 17400 ± 640 nM | 27500 ± 1430 nM | 94.97 | 240 nM | inhibition of SARS-CoV-2 PsV infection after unbound compound washed from cells (SARS-CoV-2 PsV [17]): not effective in inhibiting viral infection after washing |
| O=C(O)c1cc(-c2ccc(/C=C3\SC(=S)N(CCc4ccc(OCc5ccc(F)cc5)cc4)C3=O)o2)ccc1Cl [FD010] | 40 nM | 90 nM | 2880 nM | 1040 nM | 870 nM | 372.25 | 290 ± 30 nM | 5880 ± 610 nM | 360 nM | 70.41 | 40 ± 10 nM | 120 ± 10 nM | 970 ± 210 nM | > 50000 nM | 190 ± 30 nM | 107.47 | 20400 ± 1000 nM | 44700 ± 1260 nM | – | 1550 nM | – |
| O=C(O)c1cc(-c2ccc(/C=C3\SC(=S)N(CCc4ccc(OCC5CC5)cc4)C3=O)o2)ccc1Cl [FD012] | 410 nM | 40 nM | 770 nM | 350 nM | 250 nM | 169.27 | 20 ± 10 nM | 230 ± 20 nM | 30 nM | – | 50 ± 10 nM | 110 ± 10 nM | 150 ± 10 nM | 41700 nM | 120 ± 10 nM | 102.50 | 12300 ± 340 nM | 18600 ± 350 nM | 372.40 | 270 nM | inhibition of SARS-CoV-2 PsV infection after unbound compound washed from cells (SARS-CoV-2 PsV [17]): not effective in inhibiting viral infection after washing; inhibition of infection of nonenveloped HPV PsV (HPV PsV): could not inhibit; IC50 (NiV): 70 ± 10 nM; fluorescence intensity of treated cells (binding to cells) (Vero E6 cells): positively correlated with compound concentration; IC50 (EBOV (Zaire)): 90 ± 20 nM; inhibition of infection of authentic EV71 (authentic EV71): could not inhibit; IC50 (EBOV (Sudan)): 190 ± 20 nM; IC50 (VSV PsV): 5 nM; IC50 [18]: 910 nM; IC50 (HIV-1 6-HB): 50100 nM; inhibitory activity relative to FD001 (SARS-CoV PsV [8]): ~10 fold; IC50 (authentic HCoV-OC43): 110 nM; IC50 (LASV): 320 ± 40 nM |
| O=C(O)c1cc(-c2ccc(/C=C3\SC(=S)N(CCc4ccc(OCc5ccsc5)cc4)C3=O)o2)ccc1Cl [FD013] | 30 nM | 70 nM | 980 nM | 400 nM | 410 nM | 618.00 | 50 ± 10 nM | 3540 ± 890 nM | 120 nM | 372.40 | 30 ± 10 nM | 50 ± 10 nM | 260 ± 20 nM | > 50000 nM | 100 ± 10 nM | 186.20 | 18600 ± 230 nM | 30900 ± 630 nM | – | 310 nM | inhibition of SARS-CoV-2 PsV infection after unbound compound washed from cells (SARS-CoV-2 PsV [17]): not effective in inhibiting viral infection after washing |
| CCC(CC)COC(=O)[C@H](C)N[P@](=O)(OC[C@H]1O[C@@](C#N)(c2ccc3c(N)ncnn23)[C@H](O)[C@@H]1O)Oc1ccccc1 [Remdesivir, remdesivir, reference compound] | 1090 nM | – | – | – | – | – | – | – | – | – | – | – | – | – | – | – | – | – | – | – | – |
